# Assays:
# U266 [1] = assay: MTT cell viability assay, myeloma cell line U266; format: cell-based, human; settings: U266, MTT, 18 hours, doses 0-50 μM; read-out: IC50, cell viability
# Description: (§1) In vitro studies were carried out using six different human MM cell lines, U266, RPMI8226, MM1S, MM1R, U266-LR7, and RPMI-LR5. For ex vivo assays, human primary cells from healthy donors and MM patients were used (Table 1). Human MM cell lines U266, RPMI8226, and MM1.S were acquired from ATCC and lines U266-LR7, RPMI-LR5, and MM1.R were kindly provided by Dr. Enrique Ocio (Hospital Universitario de Salamanca, Spain). The primary cells were obtained from bone marrow (BM) aspirates or peripheral blood (PB) samples, and the peripheral blood mononuclear cells (PBMCs) were isolated by Ficoll-Hypaque centrifugation and washed twice in phosphate buffered saline (PBS) containing 1% BSA. Hematopoietic stem cells and B and T lymphocytes were isolated from healthy PB donors by positive immunomagnetic separation using human MACS CD34+, CD19+, and CD3+ microbeads, respectively. MM plasma cells were obtained from the bone marrow (BM) of patients with an infiltration of cells of more than 30% (Table 1). The MM plasma cells were identified using CD138+, and were then distinguished from the other cell populations by flow cytometry using a suitable combination of antibodies: anti-human CD64-FITC, CD34-PE, CD56-APC, CD38-APC-H7, and CD45-Pacific Blue antibodies (BD Biosciences, San Jose, Calif.). All the cell lines were cultured in RPMI-1640 supplemented with 10% fetal bovine serum (FBS) and 1% penicillin/streptomycin, as recommended by the supplier. For human primary cells, the concentration of FBS was up to 20%.
# (§2) The MM cell lines and primary cells were exposed to different doses of indazole compounds, and viability was evaluated at 18, 48, and 72 hours. Pretreatments with the ceramide synthesis inhibitor (FB1), pan-caspase (ZVAD-FMK), and CB antagonists (PGN-8, PGN-37, and PGN-70) were performed for 30 minutes, and then the cells were incubated with indazole compound WIN-55 up to 18 hours. Cell viability was determined using the MTT assay Cell Counting Kit-8 (Dojindo, Kumamoto, Japan) according to the manufacturer's instructions.
# MM1R = assay: MTT cell viability assay, myeloma cell line MM1R; format: cell-based, human; settings: MM1R, MTT, 18 hours, doses 0-50 μM; read-out: IC50, cell viability
# Description: as §1, §2
# myeloma cell lines = assay: MTT cell viability assay, average over all myeloma cell lines; format: cell-based, human; settings: average over the six myeloma cell lines, MTT, 18 hours; read-out: IC50 average
# Description: as §1, §2
# U266 [2] = assay: Cell viability by flow cytometry (annexin V/7-AAD), U266; format: cell-based, human; settings: U266, 18 hours
# Description: (§3) The cell viability of the MM cell lines and primary cells from healthy PB donors was also evaluated by flow cytometry using 7-AAD/Annexin V. Patient bone marrow (BM) cells were analyzed using 7-AAD with a combination of monoclonal antibodies against myeloma-associated antigens (anti-CD56-APC, anti-CD45-Pacific Blue, and anti-CD38-APC-H7 [BD Biosciences]) and antibodies for distinguishing the granulomonocytic population (anti-CD64-FITC) and lymphocytic population (anti-CD45-Pacific Blue). The cells were acquired by means of FACSCanto II flow cytometer (BD Biosciences) and analyzed using Infinicyt™ Software (Cytognos, Spain).
# [3] = tested on: myeloma plasma cells (MPCs, CD38+); assay: Ex vivo viability of myeloma plasma cells of MM patients by flow cytometry; format: cell-based, human; settings: 18 hours, six MM patients
# Description: (§4) In vitro studies were carried out using six different human MM cell lines, U266, RPMI8226, MM1S, MM1R, U266-LR7, and RPMI-LR5. For ex vivo assays, human primary cells from healthy donors and MM patients were used (Table 1). Human MM cell lines U266, RPMI8226, and MM1.S were acquired from ATCC and lines U266-LR7, RPMI-LR5, and MM1.R were kindly provided by Dr. Enrique Ocio (Hospital Universitario de Salamanca, Spain). The primary cells were obtained from bone marrow (BM) aspirates or peripheral blood (PB) samples, and the peripheral blood mononuclear cells (PBMCs) were isolated by Ficoll-Hypaque centrifugation and washed twice in phosphate buffered saline (PBS) containing 1% BSA. […]
# as §3
# [4] = tested on: hematopoietic stem cells (CD34+); assay: Viability of hematopoietic stem cells from healthy donors (MTT); format: cell-based, human; settings: 0-50 μM, 18 hours
# Description: as §4, with “BSA. Hematopoietic stem cells and B and T lymphocytes were isolated from healthy PB donors by positive immunomagnetic separation using human MACS CD34+, CD19+, and CD3+ microbeads, respectively. MM plasma cells were obtained from the bone marrow (BM) of patients with an infiltration of cells of more than 30% (Table 1).” for “BSA.”
# The MM cell lines and primary cells were exposed to different doses of indazole compounds, and viability was evaluated at 18, 48, and 72 hours. […] Cell viability was determined using the MTT assay Cell Counting Kit-8 (Dojindo, Kumamoto, Japan) according to the manufacturer's instructions.
# U266 cells = assay: MM xenograft in NGS mice; format: in vivo
# Description: The “NOD/scid/IL-2R gammae null” (NGS) mice were acquired from Charles River (France). The tumor xenografts were induced by the subcutaneous injection of 5×10^6 U266 cells mixed with 100 μl of Matrigel (BD Biosciences) in 8-week old mice. When the tumors became palpable (>0.5 cm), the mice were randomly assigned in the following groups (10 mice per group), which received i.p.: 1) 5 mg/kg WIN-55 every 24 hours, 2) 5 mg/kg WIN-55 every 48 hours, and 3) a vehicle. Two groups were left tumor-free and served as a negative control, receiving treatment every 24 or 48 hours, respectively. The tumor growth was evaluated daily by measuring the two bisecting diameters of the tumor with a digital Vernier gauge or caliper. The volume was calculated using the following formula: volume=length×(width) e2×0.4 mm^3. The animals were sacrificed when the length or width of the tumor reached 2 cm.
# HL60 = assay: WST-1 cell viability assay, HL60; format: cell-based, human; settings: HL60, 18 hours
# Description: (§5) The cell lines of acute myeloid leukemia KG-1a and HL60 (American Type Culture Collection) were cultured in IMDM medium supplemented with 2 mM of L-glutamine, […] of penicillin, 100 μg/ml of streptomycin, and 15% fetal bovine serum (FBS).
# (§6) The cell lines and primary cells were cultured in 96-well plates (5×10e5 cells per well) with the addition of the indicated concentrations of WIN 55,212-2 or PGN cannabinoids in DMSO or with the solvent only in triplicate at 18, 48, and 72 hours. Caspase inhibitor Z-VAD (OMe)-FMK or the CB2 receptor antagonist PGN-8, -37, and -70, together with the cannabinoid WIN-55,212-2, were also added. Cell viability was determined by means of the WST-1 assay [2-(4-iodophenyl)-3-(4-nitrophenyl)-5-(2,4-disulfophenyl)-2H-tetrazolium] according to the manufacturer's instructions (Dojindo Molecular Technologies). Optical densities were measured at 450 nm using a Multiskan™ Go Microplate plate reader (Thermo Fisher Scientific, Waltham, Mass., USA).
# (§7) Now it will be analyzed whether the exposure to cannabinoids had any effect on the viability of the tumor cells in vitro. To that end, the human AML U937, HL60, KG-1a, NB-4, MOLM-13, and KG-1 cell lines were cultured in serum-free medium and exposed to various concentrations of WIN-55,212-2 (range of 100 nM to 50 μM) for 18 hours, and cell viability was measured by means of WST-1 assays (Table 1). […]
# KG-1a = assay: WST-1 cell viability assay, KG-1a; format: cell-based, human; settings: 18 hours
# Description: as §5, §6, §7
structure (smiles),measurement,setting,value
"CS(=O)(=O)O.Cc1c(C(=O)c2cccc3ccccc23)c2cccc3c2n1[C@H](CN1CCOCC1)CO3 [WIN-55, (R)-(+)-[2,3-dihydro-5-methyl-3-(4-morpholinomethyl)-pyrrolo[1,2,3]-1,4-benzoxazin-6-yl]-1-naphthalenylmethanone mesylate]",IC50,U266 [1],17.2 µM
same,IC50,MM1R,12.1 µM
same,IC50,myeloma cell lines,14.6 µM
same,IC50,U266 [2],18.5 µM
same,decrease in cell viability of MPCs (CD38+),[3]; 20 μM,70%
same,decrease in cell viability of MPCs (CD38+),[3]; 50 μM,85%
same,hematopoietic stem cell viability,[4],not affected
same,tumor growth (tumor volume),"U266 cells; 5 mg/kg i.p. every 24 or 48 hours, NGS mice, U266 xenograft",considerably inhibits tumor growth
same,first day on which tumor volume differences were statistically significant,U266 cells; 5 mg/kg i.p. every 24 hours,13 days
same,first day on which tumor volume differences were statistically significant,U266 cells; 5 mg/kg i.p. every 48 hours,16 days
same,% viable cells at 50 μM,HL60,28.4%
same,IC50,HL60,19.4 µM
same,% viable cells at 50 μM,KG-1a,42.1%
same,IC50,KG-1a,22 µM

# Source: patent publication US20200281897A1, “INDAZOLE DERIVATIVES FOR CANCER TREATMENT” (Servicio Andaluz de Salud, priority 2016, published 2020)
